# “Also recorded” adds a separate entry of the source. Counter-ions that a name gives are not always drawn.
# What was measured:
# [1] = test system: PKA-phosphorylated TMR-cC0-C2 (cC0-C2#P); experiment: FLT-TMR concentration-response assay, PKA-phosphorylated cC0-C2; assay type: binding, human; conditions: for cC0-C2#P FLT change (% change from DMSO, FLT of TMR-MyBP-C): 60 μM compound
# Experimental: (§1) Compounds identified as initial hits were further examined to determine the concentration–response curves for seven conditions ([1]): FMAL-actin alone identified actin-binding compounds that alter the FLT of FMAL-actin ([2]).
# (§2) Fluorescence lifetime (FLT) measurements were acquired using a high-throughput FLT plate reader (Fluorescence Innovations, Inc) ([14], [27]), provided by Photonic Pharma LLC. […] The observed waveforms were analyzed as described previously ([15], [28]).
# (§3) The primary hits were dissolved in DMSO to make a 10 mM stock solution, which was serially diluted in 96-well mother plates. Hits were screened at eight concentrations (0.5–100 μM). […] Compounds (1 μl) were transferred from the mother plates into 384-well plates using a Mosquito HV liquid handler (TTP Labtech Ltd, Hertfordshire, UK). The same procedure of dispensing as for the pilot screening was applied in the concentration-response assays. Concentration dependence of the FLT-FRET (E/EDMSO) or FLT-TMR (Δτ) change data was fit to a Hill equation only under certain conditions to help guide the eye (Fig. 4).
# [2] = test system: FMAL-actin plus TMR-cC0-C2; experiment: Selleck library HTS, 473 nm excitation (FLT of FMAL-actin with TMR-cC0-C2, FLT-FRET); assay type: binding, human; conditions: for 473-nm Δτ, Repeat 1 / 473-nm Δτ, Repeat 2: initial screen, 30 μM compound; for 473-nm z-score (based on avg Δτ): robust z-score, hit threshold ±4, 30 μM compound
# How it was run: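 Donor fluorescence lifetime was then recorded. Waveforms were fit to a single exponential, and ΔFLT was obtained after a moving-median plate-gradient correction (half-row window), rescaled by the median DMSO lifetime.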
# [3] = test system: TMR-fC1-C2 (C1-C2 of fast skeletal MyBP-C); experiment: FLT-TMR concentration-response assay, fC1-C2; assay type: binding; conditions: for cC0-C2/fC1-C2 (ratio of FLT changes) / fC1-C2 FLT change (% change from DMSO, FLT of TMR-MyBP-C): 60 μM compound; for effect on FLT of TMR-fC1-C2 (in words): concentration-response, no actin
# Experimental: as §1, §2, §3
# [4] = test system: FMAL-actin/TMR-cC0-C2 interaction; experiment: FLT-FRET concentration-response assay, FMAL-actin plus TMR-cC0-C2; assay type: binding, human; conditions: for effect on FLT-FRET / binding between FMAL-actin and TMR-cC0-C2 (in words): unphosphorylated cC0-C2; for specificity of FLT-FRET effect for unphosphorylated over phosphorylated cC0-C2: effect on cC0-C2 compared to phosphorylated cC0-C2 (Tables 1 and 2)
# Experimental: as §1, §2, §3
# TMR-cC0-C2 = experiment: Selleck library HTS, 532 nm excitation (FLT of TMR-cC0-C2 in presence of FMAL-actin); assay type: binding, human; conditions: for 532-nm Δτ, Repeat 1 / 532-nm Δτ, Repeat 2: initial screen, 30 μM compound; for 532-nm z-score (based on avg Δτ): robust z-score, hit threshold ±4, 30 μM compound
# [5] = test system: rabbit fast skeletal (psoas) myofibrils; experiment: Skeletal myofibril ATPase assay; assay type: biochemical; conditions: 50 μM compound; for effect on skeletal MF ATPase activity (in words): pCa 8 to pCa 4
# Experimental: Rabbit psoas and bovine cardiac myofibrils were prepared as described in our previous study ([17]). An enzyme-coupled, NADH-linked ATPase assay was used to measure skeletal and cardiac myofibril ATPase activity in 96-well microplates at 23 °C. Ionic strength was maintained below 0.2 M, so myofilaments remained insoluble and stable ([32]). To achieve optimal enzymatic activities, buffers for skeletal and cardiac myofibrils differed slightly ([33], [34]): skeletal in 50 mM MOPS, 100 mM KCl, 5 mM MgCl2, 1 mM EGTA, pH 7.0; cardiac in 20 mM MOPS, 35 mM NaCl, 5 mM MgCl2, 1 mM EGTA, pH 7.0. Each well in the microplate contained an assay mix of 0.84 mM phosphoenolpyruvate, 0.17 mM NADH, 10 U/vol pyruvate kinase, 20 U/vol lactate dehydrogenase. The concentration of free Ca^2+ was controlled by EGTA buffering ([35]). Myofibrils were dispensed in microplates with a multichannel pipette and were incubated with assay mix plus compound of interest for 20 min at 23 °C. The concentration of myofibrils used was 0.01 mg/ml for skeletal and 0.05 mg/ml for cardiac myofibrils. The assay was started upon the addition of ATP, at a final concentration of 2.1 mM (total volume to 200 μl), and absorbance was recorded at 340 nm in a SpectraMax Plus microplate spectrophotometer from Molecular Devices. The steady-state myofibrillar ATPase rate was measured from NADH oxidation, measured as the rate of decrease in absorption at 340 nm for 30 min, with absorption data collected every 15 s. All data and statistical analysis of steady-state kinetics were conducted with the OriginPro program. The results were fitted with the Hill equation:(6) V=V0+(Vmax/1+10^−n∗^(pCa50−pCa)) where V is the ATPase rate and n is the Hill coefficient.
# ATPase activity is reported on the μmol ATP/mg protein/min scale. Average data are presented as mean ± SD. Sample means are derived from three different myofibril preps (N = 3), each done in duplicate (n = 6).
# The effects of compounds on ATPase activity of myofibrils were determined in the presence of 50 μM compound, across a 12-point pCa range from 4.0 (activation) to 8.0 (relaxation). The calcium sensitivity (pCa50) was determined by fitting the curves to the Hill equation. In all experiments, a 1% DMSO-only control was included. The normalized ATPase activity of the selected compounds can be found in Figure 6.
# [6] = test system: TMR-cC0-C2 (C0-C2 fragment of human cMyBP-C); experiment: FLT-TMR concentration-response assay (FLT of TMR on cC0-C2, no actin); assay type: binding; conditions: for cC0-C2/cC0-C2#P (ratio of FLT changes) / cC0-C2 FLT change (% change from DMSO, FLT of TMR-MyBP-C): 60 μM compound; for effect on FLT of TMR-cC0-C2 (in words): concentration-response, no actin
# How it was run: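 Hits tested at eight concentrations (0.5–100 μM) and read on a high-throughput fluorescence lifetime plate reader. Hill fits applied only under certain conditions.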
# [7] = test system: FMAL-actin/PKA-phosphorylated TMR-cC0-C2 interaction; experiment: FLT-FRET concentration-response assay, FMAL-actin plus PKA-phosphorylated TMR-cC0-C2; assay type: binding, human; conditions: phosphorylated cC0-C2
# Experimental: as §1, §2, §3
# [8] = test system: FMAL-actin/TMR-fC1-C2 interaction; experiment: FLT-FRET concentration-response assay, FMAL-actin plus TMR-fC1-C2; assay type: binding
# Experimental: as §1, §2, §3
SMILES,"cC0-C2#P FLT change (% change from DMSO, FLT of TMR-MyBP-C) [1] [%]","473-nm Δτ, Repeat 1 [2] [ns]","473-nm Δτ, Repeat 2 [2] [ns]",473-nm z-score (based on avg Δτ) [2],cC0-C2/fC1-C2 (ratio of FLT changes) [3],"fC1-C2 FLT change (% change from DMSO, FLT of TMR-MyBP-C) [3] [%]",effect on FLT of TMR-fC1-C2 (in words) [3],effect on FLT-FRET / binding between FMAL-actin and TMR-cC0-C2 (in words) [4],"532-nm Δτ, Repeat 1 (TMR-cC0-C2) [ns]","532-nm Δτ, Repeat 2 (TMR-cC0-C2) [ns]",532-nm z-score (based on avg Δτ) (TMR-cC0-C2),effect on skeletal MF ATPase activity (in words) [5],cC0-C2/cC0-C2#P (ratio of FLT changes) [6],"cC0-C2 FLT change (% change from DMSO, FLT of TMR-MyBP-C) [6] [%]",effect on FLT of TMR-cC0-C2 (in words) [6],effect on FLT-FRET / binding between FMAL-actin and PKA-phosphorylated TMR-cC0-C2 (in words) [7],specificity of FLT-FRET effect for unphosphorylated over phosphorylated cC0-C2 [4],effect on FLT-FRET / binding between FMAL-actin and TMR-fC1-C2 (in words) [8],other results
C#Cc1cccc(Nc2ncnc3cc(OCCOC)c(OCCOC)cc23)c1 [Erlotinib],9.7,0.026,0.001,0.78,1.2,8.5,increases,decrease,0.100,0.119,6.74,affected; also recorded: affect skeletal muscle ATPase,1.0,9.8,increases; also recorded: affect,,,,"effect on FLT of PKA-phosphorylated TMR-cC0-C2 (in words) ([1]; concentration-response, no actin): increases"
CCN(C(=O)c1c(O)c2c(Cl)cccc2n(C)c1=O)c1ccccc1 [Laquinimod],,0.109,0.071,5.08,,,do not affect,decreased,-0.017,-0.016,-0.99,,,,do not affect,decreased,stronger reduction of FRET with non-phosphorylated than phosphorylated,decreased,
CO/N=C(\C(=O)N[C@@H]1C(=O)N2C(C(=O)O)=C(C[N+]3(C)CCCC3)CS[C@H]12)c1csc(N)n1 [Cefepime dihydrochloride monohydrate],,0.127,0.102,6.43,,,,,0.006,-0.096,-2.70,affected ATPase,,,,,,,"effects on actin binding (FRET) ([4]; range over cC0-C2, phosphorylated cC0-C2 and fC1-C2): 13–35%; reduction in actin binding (fC1-C2-actin FRET) ([8]; skeletal MyBP-C): 13%"
CCC(C)(Oc1ccc(C2(c3ccc(OC(C)(CC)C(=O)O)cc3)CCCCC2)cc1)C(=O)O (stereo not shown) [Clinofibrate],,0.090,0.075,4.65,,,do not affect,decreased,0.006,0.016,0.70,,,,do not affect,decreased,stronger reduction of FRET with non-phosphorylated than phosphorylated,decreased,
COC(=O)N[C@H](C(=O)N1CCC[C@H]1c1nc(-c2ccc3c(c2)O[C@@H](c2ccccc2)n2c-3cc3cc(-c4c[nH]c([C@@H]5CCCN5C(=O)[C@@H](NC(=O)OC)C(C)C)n4)ccc32)c[nH]1)C(C)C [Elbasvir],,0.142,0.080,6.24,,,do not affect,decreased,-0.002,0.011,0.31,,,,do not affect,decreased,5 fold,decreased,
CC(C(=O)O)c1ccc2c(c1)CC(=O)c1ccccc1S2 (stereo not shown) [Zaltoprofen],,0.113,0.083,5.52,,,do not affect,decreased,-0.015,0.015,0.04,,,,do not affect,decreased,stronger reduction of FRET with non-phosphorylated than phosphorylated,decreased,
C[C@@H](O)[C@H]1C(=O)N2C(C(=O)[O-])=C(S[C@@H]3CN[C@H](C(=O)Nc4cccc(C(=O)O)c4)C3)[C@H](C)[C@H]12.[Na+] [Ertapenem sodium],8.0,0.353,0.231,16.37,0.8,12.2,,,0.079,0.157,7.23,marked increase in ATPase activity at pCa 8; also recorded: affected ATPase,1.3,10.2,,,,,effect on Ca^2+-sensitivity of skeletal MF ATPase (in words) [5]: altered Ca^2+ sensitivity
O=C(Nc1cccc2c(=O)cc(-c3nnn[nH]3)oc12)c1ccc(OCCCCc2ccccc2)cc1 [Pranlukast],50.1,0.061,0.008,1.95,0.6,50.3,,,0.073,0.116,5.80,affected,0.6,30.7,,,,,effect on skeletal MF ATPase activity (in words) ([5]; listed as Pranleukast): affected ATPase
NC(=O)c1cc[n+](CC2=C(C(=O)O)N3C(=O)[C@@H](NC(=O)[C@@H](c4ccccc4)S(=O)(=O)[O-])[C@H]3SC2)cc1 [Cefsulodin sodium],8.1,0.394,0.316,19.91,0.8,11.5,,,0.114,0.083,6.07,affected ATPase,1.1,9.1,,,,,effect on skeletal MF ATPase activity (in words) ([5]; listed as Cefsoludin sodium): affected

# Source: paper PMC10692721, “Drug discovery for heart failure targeting myosin-binding protein C” (The Journal of Biological Chemistry, 2023)
